{"source": "patent US20250188032A1", "about": "“NITROGEN-CONTAINING HETEROCYCLIC COMPOUNDS AND USES THEREOF” (BNH RESEARCH CO., LTD., priority 2022, published 2025)", "molecules": {"B1": {"name": "BDNF: brain-derived neurotrophic factor applied to the mice barrel cortex using Alzet osmotic pump (protein, UniProt P23560 19-247, looked up)", "Neurotrophic factor BDNF …": "APMKEANIRGQGGLAYPGVRTHGTLESVNGPKAGSRGLTSLADTFEHVIEELLDEDQKVRPNEENNKDADLYTSRVMLSSQVPLEPPLLFLLEEYKNYLDAANMSMRVRRHSDPARRGELSVCDSISEWVTAADKKTAVDMSGGTVTVLEKVPVSKGQLKQYFYETKCNPMGYTKEGCRGIDKRHWNSQCRTTQSYVRALTMDSKKRIGWRFIRIDTSCVCTLTIKRGR"}}, "tested_on": "C57BL/6J mice barrel cortex (layer 4)", "test": "Synaptic function test: TC EPSC potency and GABA/AMPA ratio in barrel cortex (layer 4)", "type": "in vivo", "from_the_text": "Eight weeks old male C57BL/6J mice were anesthetized with isoflurane during surgery. The mice were then be placed in a stereotaxic frame (RWD Life Science, China). The parietal and the frontal bones were exposed by a sagittal incision of the scalp at the midline from the level of the eyes to the occipital protuberance. A small burr hole was drilled after exposing the skull. The injection cannula was placed at the following coordinates: (Mouse: Bregma −3.30, lateral −1.50, and ventral 0.7 mm). Sterile saline solution (+/−a compound of the present disclosure) was perfused at a constant flow rate of 0.5 μL/h through the injection cannula using a mini-Os pump (DURECT Corporation ALZET Osmotic Pumps, CA). Implantation was done in layer 4 of the barrel cortex ipsilateral. To estimate extent of the diffusion of the injected compound in layer 4 barrel cortex during pump injection, methylene blue was first injected to stain the diffusion area. On average methylene blue diffused to […] away from the injection site (the total area of the barrel cortex region is about 1500 μm). Based on this analysis, the present inventors recorded from barrel cortex area.\n2 mg of BnH12001 was dissolved in 800 ul of DMSO and prepared as a stock solution. For oral administration, BnH12001 DMSO stock:PEG400:Saline was mixed in a ratio of 5:55:40 and 200 μl/animal was administered. For the control group, a vehicle in which DMSO:PEG400:Saline was mixed in a 5:55:40 ratio was administered at 200 ul/animal. In the single drug administration test, the compound was administered once a day for about 11 to 12 days at a dose of 1 mg/kg. Dose response test was performed by administering the compound once a day for about 11 to 12 days at doses of 0.03, 0.1, 0.3, 1, 3, and 10 mg/kg. 5 mice were used for the compound administration group and the control group, respectively.\nFor TC or hippocampus slice preparation. 9 to 10 weeks-old male C57BL/6J mice were anesthetized with isoflurane. Then, the brain was rapidly cooled via transcardial perfusion with ice-cold sucrose-artificial cerebrospinal fluid (aCSF). The brain was removed and placed in ice-cold sucrose aCSF. Paracoronal slices were prepared at an angle of 50° relative to the midline on a ramp at an angle of 10°. Then, slices were incubated in aCSF at 35° C. for 30 minutes to recover. Slices were then incubated in aCSF at room temperature (23 to 25° C.) for 1 to 4 hours before being placed in the recording chamber for experiments. The standard aCSF contains saturated with 95% O2/5% CO2. The brain of the mouse was removed and cut into 400 μm at a 50° angle (mouse at a 55° angle) to attach the cut portion to the vibratome disc to be the bottom. Brain slice was incubated in 35° C. in aCSF solution for 30 minutes, or at RT in aCSF solution for 1 hour.\nAll electrophysiological experiments were conducted at 27 to 29° C. For electrophysiological experiments, electrodes with […] resistance were used and stimuli were applied to the ventral posteromedial nucleus (VPM) using a concentric bipolar electrode (FHC, Bowdoin, ME). The somatosensory cortex was identified by the presence of barrels under 4× magnification and differential interference contrast (DIC) optics, and by the ability to evoke short and constant latency field excitatory postsynaptic potentials (fEPSPs) by VPM stimulation. Whole-cell voltage-clamp recordings were made from stellate cells (SC) in layer IV of the somatosensory barrel cortex using infrared illumination and differential interference contrast (DIC) optics. The composition of whole cell recording solution is shown as follows:\nWhole cell recordings were made using a multiclamp 700A (Molecular devices, Sunnyvale, CA) digitized at 10 kHz and filtered at 2 kHz. […]", "key": {"[1]": {"conditions": "oral, 1 mg/kg, 8-week-old C57BL/6J mice"}, "[2]": {"conditions": "applied to the mice barrel cortex using Alzet osmotic pump"}}}
{"molecule": "C[C@H]1CC[C@@H](C(=O)O)CN1C(=O)Cc1ccc(F)cc1Cl", "note": "[BnH12001 enantiomer (3R,6S, 98%<), (3R,6S)-1-(2-(2-chloro-4-fluorophenyl)acetyl)-6-methylpiperidine-3-carboxylic acid]", "values": [{"measurement": "Balance of excitation/inhibition (GABA/AMPA ratio)", "setting": "[1]", "result": "maintaining the balance of excitation/inhibition"}, {"measurement": "Efficacy on TC synaptic potency compared among racemate and enantiomers", "setting": "[1]", "result": "better efficacy than the racemate"}, {"measurement": "TC synaptic potency in the sensory cortex", "setting": "[1]", "result": "increase the TC synaptic potency"}]}
{"molecule": "cyclotraxin B [reference compound]", "values": [{"measurement": "BDNF-induced augmentation of TC EPSC potency", "setting": "cyclotraxin B 1 μM application", "result": "almost completely prevented"}, {"measurement": "BnH12001-induced increase of TC EPSC potency", "setting": "cyclotraxin B 1 μM application", "result": "nearly completed hindered"}]}
{"molecule": "B1", "values": [{"measurement": "IPSC/EPSC ratio", "setting": "[2]", "result": "without alteration"}, {"measurement": "TC EPSC potency", "setting": "[2]", "result": "significantly increased"}]}
